# Measurements as given in patent US6479233B1, “Electrogenerated chemiluminescence labels for analysis and/or referencing” (IGEN International, Inc., priority 1994, dated 2002).
# Read-outs that look alike come from different tables or passages of the source.
# What was measured:
# [1] = Fluorescence spectra (CCD camera, 366 nm UV excitation); assay type: physicochemical; conditions: for fluorescence maximum: pH 8.5 sodium phosphate buffer
# Procedure: (§1) Fluorescence and ECL spectra were recorded using a charge-coupled device (CCD) camera and spectrometer (1 mm entrance slit) interfaced to a Dell System 200 personal computer (Austin, Tex.) as previously described. The same procedures (spectral calibration etc.) were followed except that different pulse sequences were used and the CCD detector was maintained at −110° C. for the TPrA/THCOOH and TPrA/DPAS experiments and −100° C. for the S2O8^2−/DPAS experiments. Excitation for the fluorescence spectra was achieved by holding a longwave (366 nm) UV lamp (UVP, Inc., San Gabriel, Calif.; model UVGL-25; sold by Fisher Scientific, Pittsburgh, Pa.) next to the cell and at right angles to the entrance slit of the spectrometer.
# [2] = ECL spectra (CCD camera and spectrometer); assay type: physicochemical; design: wavelength centered emission: unit not given here; conditions: for ECL maximum: pH 8.5 sodium phosphate buffer
# Procedure: as §1
# The DPAS/TPrA ECL spectrum and emission vs. potential scans utilized a 6×9 mm Pt gauze flag (52 mesh gauze; Aldrich) working electrode, an AgQRE and a round (9 mm diameter, 0.5 mm thick) Au foil counter electrode. The 2-THCOOH ECL spectrum also utilized this arrangement. The gauze working electrode was cleaned prior to each experiment by immersion in concentrated nitric acid followed by rinsing in distilled water and heating in a bunsen burner flame.
# The DPAS/S2O8^2− ECL spectrum and emission vs. potential scan utilized a 2.0 mm diameter Pt disk working electrode sealed in glass in combination with a Pt wire counter electrode and AgQRE.
# [3] = Cyclic voltammetry / standard potentials; assay type: physicochemical
# Procedure: Cyclic voltammetry without photon detection was obtained by using either a BAS 100A Electrochemical Analyzer (Bioanalytical Systems, West Lafayette, Ind.) or a Princeton Applied Research (PAR) model 173/175 potentiostat/universal programmer (Princeton, N.J.) and Omnigraphic 20000 X-Y recorder (Bausch and Lomb-Houston Instrument Division, Austin, Tex.). Cyclic voltammograms with simultaneous photon detection were recorded using the PAR 173/175 in conjunction with a Hamamatsu C1230 photon counter (Bridgewater, N.J.) equipped with a Hamamatsu R928-P photomultiplier tube. The photomultiplier tube was housed in a water jacketed Products For Research, Inc. model TE308TSRF refrigerated chamber maintained at −10° C. Primary cooling of the water jacket to 10° C. was accomplished using an MGW Lauda model RMS6 refrigeration unit (sold by Brinkmann Instruments Co., Westbury, N.Y.). For plots of ECL intensity vs. potential, the output from the photon counter was fed into the Y-axis of the X-Y recorder during potential scans.
# Except where noted, all electrochemical and ECL experiments utilized a conventional 3-electrode cell configuration. Pt disk working electrodes were polished on a felt pad (Buehler, Ltd., Lake Bluff, Ill.) before each experiment run with 0.05 μm alumina (Buehler, Ltd.) suspended in water.
# For cyclic voltammetry runs without photon detection, the CPZ embodiment utilized a highly-oriented pyrolytic graphite (HOPG; Union Carbide, Cleveland, Ohio) working electrode (6 mm dia. disk with freshly exposed material for each experiment), Pt wire counter electrode and Ag quasi-reference electrode (AgQRE) in a recently describe configuration. See Xu, X.; Bard, A. J. Langmuir, 1994, 10, 2409. Similar runs for all other compounds utilized a 1.5 mm diameter Pt disk working electrode sealed in glass in combination with a Pt wire counter electrode and AgQRE.
# Nonaqueous potential referencing to ferrocene was accomplished by adding the standard directly to the solutions. […]
# [4] = Maximum solubility of aqueous DPAS in sodium phosphate buffer; assay type: physicochemical; conditions: 0.15 M sodium phosphate buffer (pH 7.5)
# Description: The maximum solubility of aqueous DPAS in 0.15 M sodium phosphate buffer (pH 7.5) is approximately 1×10^−5 M. At this low concentration, no anodic current can be observed for DPAS above the background oxidation of water as shown in FIG. 1. However, if 1×10^−5 M DPAS is oxidized in the presence of 0.15 M TPrA, an emission that coincides with an oxidation wave occurs that is superimposed on the TPrA oxidation and background oxidation of water as shown in FIGS. 2a-2b. The fact that an oxidation current is observed for 1×10^−5 M DPAS only in the presence of TPrA implicates a catalytic current enhancement due to the regeneration of DPAS via reduction of DPAS^+ by TPrA or an intermediate. For this catalysis, the cyclic sequence of reactions is analogous to equation schemes (5), (6a), (7), (8) or (10) and (11), and (9) above where Ru(bpy)3^3+/2+/+ is replaced by DPAS^+/0/− respectively, XY^z is TPrA, X^x is Pr2NCH.Et and Y^y is H^+. Despite the low DPAS concentration, 1×10^−5 M, this emission is visibly blue when viewed in a dark room and no emission is observed in the absence of either TPrA or DPAS.
# [5] = design: peak emission: unit not given here; conditions: cited from earlier work; for fluorescence efficiency φF: aqueous media
# [6] = non-aqueous ion annihilation scheme; cited from earlier work
smiles,measurement,setting,value
"O=C(O)c1cccc2c1Sc1ccccc1S2 [1-THCOOH, 1-thianthrenecarboxylic acid]",fluorescence maximum,[1]; 0.15 M TPrA,505 nm
same,ECL maximum,[2]; 0.15 M TPrA,570 nm
"O=C(O)c1ccc2c(c1)Sc1ccccc1S2 [2-THCOOH, 2-thianthrenecarboxylic acid]",fluorescence maximum,[1]; 0.15 M TPrA,480 nm
same,oxidation potential,"[3]; aqueous solution, pH 8.5 sodium phosphate buffer, Pt electrode, vs SCE",~+1.0 V
same,ECL maximum,[2]; 0.15 M TPrA,570 nm
"O=S(=O)([O-])c1ccc2c(-c3ccccc3)c3ccccc3c(-c3ccccc3)c2c1.[Na+] [DPAS, sodium 9,10-diphenylanthracene-2-sulfonate]",singlet excited state energy Es,[1],2.9 eV
same,fluorescence peak intensity wavelength,"[1]; 1.1 mM DPAS, 25 mM (NH4)2S2O8, MeCN-water 1:1",430 nm
same,fluorescence peak intensity wavelength,"[1]; 1×10^−5 M DPAS, 0.15 M TPrA, pH 7.5 sodium phosphate buffer",430 nm
same,solubility,[4],~10 µM
same,E° of DPAS+/DPAS,[3]; oxidation,≈ +1.3 V vs SCE
same,E° of DPAS/DPAS−,[3]; reduction,≈ −1.9 V vs SCE
same,ECL peak intensity wavelength,"[2]; 1.1 mM DPAS, 25 mM (NH4)2S2O8, MeCN-water 1:1, reduction at −2.2 V vs SCE",430 nm
same,ECL peak intensity wavelength,"[2]; 1×10^−5 M DPAS, 0.15 M TPrA, pH 7.5 sodium phosphate buffer, oxidation",430 nm
same,wavelength centered emission,[2]; emission spectra of FIG. 19,430
same,fluorescence efficiency φF,[5],0.87
same,peak emission,[5]; fluorescence,428
"[Ru+2].c1ccc(-c2ccccn2)nc1.c1ccc(-c2ccccn2)nc1.c1ccc(-c2ccccn2)nc1 [Ru(bpy)3^2+, tris (2,2-bipyridine)ruthenium(II), reference compound]",fluorescence efficiency φF,[5],about 0.05
"c1ccc2c(c1)Sc1ccccc1S2 [thianthrene, reference compound]",ECL peak intensity wavelength,[6],434 nm
same,emission maximum of fluorescence,[5]; in MeCN,434 nm
